What all share (test): Dundee kinase panel
Holding throughout (format): biochemical
Common to all, as to conditions: for remaining activity at 1 µM: read-out: residual activity

In one experiment the target is T1, GSK3b (Homo sapiens, UniProt P49841).
T1 construct: lines 1-140) and Reaction Biology
As to the method:
(§1) Compounds were screened at 1 μM. For key hits, pIC50 values were then determined by HTRF as above. […] Stability in mouse and human liver microsomes was determined by Cyprotex.

The next experiment addresses T2, CAMKKb (Homo sapiens, UniProt Q96RR4).
T2 construct: lines 1-140) and Reaction Biology
As to the method: as §1

The next experiment addresses T3, TTK (Homo sapiens, UniProt P33981).
T3 construct: lines 1-140) and Reaction Biology
T3 sequence (P33981 1-857): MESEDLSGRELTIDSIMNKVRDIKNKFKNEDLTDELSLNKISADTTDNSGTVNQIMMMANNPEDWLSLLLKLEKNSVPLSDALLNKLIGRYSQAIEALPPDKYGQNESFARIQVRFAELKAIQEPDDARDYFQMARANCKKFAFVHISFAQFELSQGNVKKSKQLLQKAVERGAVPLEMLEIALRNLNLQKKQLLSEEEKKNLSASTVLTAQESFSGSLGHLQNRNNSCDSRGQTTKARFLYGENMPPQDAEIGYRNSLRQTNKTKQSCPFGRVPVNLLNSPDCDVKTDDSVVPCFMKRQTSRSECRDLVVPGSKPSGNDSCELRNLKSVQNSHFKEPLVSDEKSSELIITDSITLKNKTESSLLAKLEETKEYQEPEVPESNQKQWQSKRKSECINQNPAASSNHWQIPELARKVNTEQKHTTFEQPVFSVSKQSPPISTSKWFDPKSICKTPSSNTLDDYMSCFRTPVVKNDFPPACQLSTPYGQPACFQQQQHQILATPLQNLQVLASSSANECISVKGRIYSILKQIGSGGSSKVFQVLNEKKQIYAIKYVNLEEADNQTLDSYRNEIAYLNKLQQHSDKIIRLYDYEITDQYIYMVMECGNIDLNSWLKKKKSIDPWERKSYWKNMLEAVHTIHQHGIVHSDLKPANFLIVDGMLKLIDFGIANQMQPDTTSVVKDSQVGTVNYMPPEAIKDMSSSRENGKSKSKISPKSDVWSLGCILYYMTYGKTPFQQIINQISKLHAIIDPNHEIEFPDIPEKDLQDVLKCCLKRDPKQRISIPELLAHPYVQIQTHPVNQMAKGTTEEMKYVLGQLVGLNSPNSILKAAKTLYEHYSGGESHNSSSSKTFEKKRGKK
As to the method:
as §1

The target in the next experiment is T4, PKD1 (Homo sapiens, UniProt Q15139).
T4 construct: lines 1-140) and Reaction Biology
T4 sequence (Q15139 1-912): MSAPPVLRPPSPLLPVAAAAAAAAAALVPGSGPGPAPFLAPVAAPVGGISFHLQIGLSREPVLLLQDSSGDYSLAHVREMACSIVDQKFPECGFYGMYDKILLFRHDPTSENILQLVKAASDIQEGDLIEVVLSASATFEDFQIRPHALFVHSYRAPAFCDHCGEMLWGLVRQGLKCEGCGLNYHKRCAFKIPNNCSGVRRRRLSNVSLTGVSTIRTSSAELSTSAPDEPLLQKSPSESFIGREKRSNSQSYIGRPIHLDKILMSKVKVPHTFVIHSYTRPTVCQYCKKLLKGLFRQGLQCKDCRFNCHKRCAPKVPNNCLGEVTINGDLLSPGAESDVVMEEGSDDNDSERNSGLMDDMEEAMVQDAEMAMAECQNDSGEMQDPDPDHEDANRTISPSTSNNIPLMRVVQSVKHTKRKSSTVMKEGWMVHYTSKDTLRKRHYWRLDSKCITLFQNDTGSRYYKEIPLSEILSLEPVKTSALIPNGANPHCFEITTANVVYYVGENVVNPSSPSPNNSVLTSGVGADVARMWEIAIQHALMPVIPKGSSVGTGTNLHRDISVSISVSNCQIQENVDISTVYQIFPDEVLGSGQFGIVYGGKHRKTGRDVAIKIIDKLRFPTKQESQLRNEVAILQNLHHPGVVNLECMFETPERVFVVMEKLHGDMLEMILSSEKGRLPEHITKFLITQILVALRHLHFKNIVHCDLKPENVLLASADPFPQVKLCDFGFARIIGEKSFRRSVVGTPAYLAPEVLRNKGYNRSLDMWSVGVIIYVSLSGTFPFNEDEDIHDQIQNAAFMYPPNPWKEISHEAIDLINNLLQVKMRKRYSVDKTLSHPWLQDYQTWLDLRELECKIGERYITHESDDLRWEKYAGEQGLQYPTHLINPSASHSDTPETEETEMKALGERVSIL
On the procedure:
as §1

In another experiment the target is T5, PAK5 (Homo sapiens, UniProt Q9P286).
T5 construct: lines 1-140) and Reaction Biology
T5 sequence (Q9P286 whole entry): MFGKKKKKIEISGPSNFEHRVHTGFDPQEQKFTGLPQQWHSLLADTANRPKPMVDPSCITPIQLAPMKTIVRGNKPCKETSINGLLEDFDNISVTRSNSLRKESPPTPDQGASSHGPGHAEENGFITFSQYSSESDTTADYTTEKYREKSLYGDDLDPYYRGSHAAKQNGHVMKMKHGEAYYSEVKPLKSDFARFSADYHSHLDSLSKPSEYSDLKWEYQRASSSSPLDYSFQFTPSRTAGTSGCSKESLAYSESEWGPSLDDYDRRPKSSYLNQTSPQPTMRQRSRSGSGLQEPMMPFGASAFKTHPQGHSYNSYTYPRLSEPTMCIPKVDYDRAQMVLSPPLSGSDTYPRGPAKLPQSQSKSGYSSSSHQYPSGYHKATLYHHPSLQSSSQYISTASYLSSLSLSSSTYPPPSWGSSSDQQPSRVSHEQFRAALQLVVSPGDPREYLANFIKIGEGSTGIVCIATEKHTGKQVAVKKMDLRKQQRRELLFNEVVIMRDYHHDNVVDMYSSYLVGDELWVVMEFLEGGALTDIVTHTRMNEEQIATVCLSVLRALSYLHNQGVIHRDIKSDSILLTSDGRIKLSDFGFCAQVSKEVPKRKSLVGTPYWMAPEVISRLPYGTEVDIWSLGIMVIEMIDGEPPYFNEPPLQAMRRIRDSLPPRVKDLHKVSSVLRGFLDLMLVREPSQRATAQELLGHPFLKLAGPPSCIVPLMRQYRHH
As to the method:
as §1

In the next experiment the target is T6, FGF-R1 (Homo sapiens, UniProt P11362).
T6 construct: lines 1-140) and Reaction Biology
T6 sequence (P11362 22-822): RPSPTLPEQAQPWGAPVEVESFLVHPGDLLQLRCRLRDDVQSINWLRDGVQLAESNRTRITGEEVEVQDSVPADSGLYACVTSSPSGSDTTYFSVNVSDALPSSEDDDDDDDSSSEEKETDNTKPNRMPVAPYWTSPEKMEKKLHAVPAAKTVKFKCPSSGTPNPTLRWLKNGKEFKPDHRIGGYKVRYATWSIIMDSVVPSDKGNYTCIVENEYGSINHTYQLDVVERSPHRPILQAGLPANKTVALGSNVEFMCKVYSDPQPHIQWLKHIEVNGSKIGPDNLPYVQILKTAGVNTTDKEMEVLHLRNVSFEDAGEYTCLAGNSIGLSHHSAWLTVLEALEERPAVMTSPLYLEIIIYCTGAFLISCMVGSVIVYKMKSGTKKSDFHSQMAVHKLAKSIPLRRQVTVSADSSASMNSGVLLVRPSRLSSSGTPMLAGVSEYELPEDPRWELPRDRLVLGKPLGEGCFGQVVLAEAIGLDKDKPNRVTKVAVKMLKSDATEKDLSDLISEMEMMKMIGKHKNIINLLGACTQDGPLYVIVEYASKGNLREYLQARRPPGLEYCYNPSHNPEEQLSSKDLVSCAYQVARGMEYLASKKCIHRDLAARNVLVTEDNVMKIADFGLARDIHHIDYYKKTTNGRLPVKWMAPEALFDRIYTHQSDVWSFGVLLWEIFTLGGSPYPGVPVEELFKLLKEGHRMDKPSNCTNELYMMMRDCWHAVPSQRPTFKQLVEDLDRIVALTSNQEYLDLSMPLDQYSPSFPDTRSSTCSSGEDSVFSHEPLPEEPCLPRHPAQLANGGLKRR
As to the method: as §1

Another experiment concerns the target T7, TTBK1 (Homo sapiens, UniProt Q5TCY1).
T7 construct: lines 1-140) and Reaction Biology
As to the method:
as §1

The next experiment deals with T8, GCK (Homo sapiens, UniProt Q12851).
T8 construct: lines 1-140) and Reaction Biology
T8 sequence (Q12851 1-820): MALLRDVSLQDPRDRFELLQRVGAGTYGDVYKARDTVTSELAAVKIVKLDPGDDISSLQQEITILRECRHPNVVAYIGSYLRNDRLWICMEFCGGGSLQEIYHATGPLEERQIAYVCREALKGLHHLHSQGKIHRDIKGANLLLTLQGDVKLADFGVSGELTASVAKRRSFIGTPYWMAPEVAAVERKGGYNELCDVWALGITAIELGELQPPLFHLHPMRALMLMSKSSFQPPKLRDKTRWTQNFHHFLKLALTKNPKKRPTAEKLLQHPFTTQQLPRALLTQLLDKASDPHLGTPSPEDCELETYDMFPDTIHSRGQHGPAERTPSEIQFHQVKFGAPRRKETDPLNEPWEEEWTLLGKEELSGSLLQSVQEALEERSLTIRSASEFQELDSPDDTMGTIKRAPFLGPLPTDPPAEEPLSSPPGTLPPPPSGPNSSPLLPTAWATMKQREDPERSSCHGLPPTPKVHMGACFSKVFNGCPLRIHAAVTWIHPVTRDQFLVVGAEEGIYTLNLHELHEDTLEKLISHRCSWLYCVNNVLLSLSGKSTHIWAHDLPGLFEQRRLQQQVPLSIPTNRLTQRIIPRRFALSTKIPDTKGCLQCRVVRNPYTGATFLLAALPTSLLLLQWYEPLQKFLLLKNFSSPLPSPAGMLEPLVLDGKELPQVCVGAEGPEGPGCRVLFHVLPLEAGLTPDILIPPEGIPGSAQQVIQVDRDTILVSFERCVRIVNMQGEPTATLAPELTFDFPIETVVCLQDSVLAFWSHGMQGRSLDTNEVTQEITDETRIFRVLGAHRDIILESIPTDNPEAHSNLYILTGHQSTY
As to the method:
as §1

The next experiment deals with T9, STK33 (Homo sapiens, UniProt Q9BYT3).
T9 construct: lines 1-140) and Reaction Biology
T9 sequence (Q9BYT3 whole entry): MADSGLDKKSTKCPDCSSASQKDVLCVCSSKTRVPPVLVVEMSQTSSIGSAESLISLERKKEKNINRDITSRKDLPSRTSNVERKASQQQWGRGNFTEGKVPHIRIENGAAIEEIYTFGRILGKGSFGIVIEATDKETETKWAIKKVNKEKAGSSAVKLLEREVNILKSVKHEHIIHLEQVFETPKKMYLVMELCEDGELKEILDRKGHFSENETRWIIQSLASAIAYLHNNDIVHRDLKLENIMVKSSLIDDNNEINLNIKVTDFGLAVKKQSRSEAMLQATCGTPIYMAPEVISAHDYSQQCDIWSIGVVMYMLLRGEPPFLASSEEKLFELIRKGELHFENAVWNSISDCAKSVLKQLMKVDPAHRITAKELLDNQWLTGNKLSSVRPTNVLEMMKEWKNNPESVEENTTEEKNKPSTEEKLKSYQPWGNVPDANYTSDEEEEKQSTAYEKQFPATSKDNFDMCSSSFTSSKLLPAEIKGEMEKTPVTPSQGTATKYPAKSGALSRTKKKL
On the procedure:
as §1

T2 sequence (Q96RR4 whole entry): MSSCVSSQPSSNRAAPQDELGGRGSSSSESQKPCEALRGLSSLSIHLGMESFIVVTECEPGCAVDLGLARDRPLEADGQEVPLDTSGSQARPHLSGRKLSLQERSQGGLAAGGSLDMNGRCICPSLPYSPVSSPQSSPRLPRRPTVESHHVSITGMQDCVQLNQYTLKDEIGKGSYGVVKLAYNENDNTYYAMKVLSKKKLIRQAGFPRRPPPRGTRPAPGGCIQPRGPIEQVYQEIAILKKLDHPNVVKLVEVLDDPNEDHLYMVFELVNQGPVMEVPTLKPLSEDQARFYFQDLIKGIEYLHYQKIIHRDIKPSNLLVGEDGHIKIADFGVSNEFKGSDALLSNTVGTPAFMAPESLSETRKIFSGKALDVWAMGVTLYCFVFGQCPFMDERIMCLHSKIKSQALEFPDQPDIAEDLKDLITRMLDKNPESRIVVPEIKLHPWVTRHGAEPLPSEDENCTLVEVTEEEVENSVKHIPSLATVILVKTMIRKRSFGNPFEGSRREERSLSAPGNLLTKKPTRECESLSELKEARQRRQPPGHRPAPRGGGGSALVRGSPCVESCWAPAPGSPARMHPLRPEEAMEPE
T1 sequence (P49841 whole entry): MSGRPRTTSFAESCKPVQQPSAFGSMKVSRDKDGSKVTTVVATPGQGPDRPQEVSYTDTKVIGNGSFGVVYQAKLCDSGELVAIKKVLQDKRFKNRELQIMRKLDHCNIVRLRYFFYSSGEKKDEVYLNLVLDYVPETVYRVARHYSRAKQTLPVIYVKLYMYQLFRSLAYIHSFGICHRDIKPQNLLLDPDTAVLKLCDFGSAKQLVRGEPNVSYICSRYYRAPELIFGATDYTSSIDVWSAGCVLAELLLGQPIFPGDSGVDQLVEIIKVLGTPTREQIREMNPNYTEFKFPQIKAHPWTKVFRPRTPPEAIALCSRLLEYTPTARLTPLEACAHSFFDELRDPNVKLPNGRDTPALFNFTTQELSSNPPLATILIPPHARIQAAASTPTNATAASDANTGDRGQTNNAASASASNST
T7 sequence (Q5TCY1 whole entry): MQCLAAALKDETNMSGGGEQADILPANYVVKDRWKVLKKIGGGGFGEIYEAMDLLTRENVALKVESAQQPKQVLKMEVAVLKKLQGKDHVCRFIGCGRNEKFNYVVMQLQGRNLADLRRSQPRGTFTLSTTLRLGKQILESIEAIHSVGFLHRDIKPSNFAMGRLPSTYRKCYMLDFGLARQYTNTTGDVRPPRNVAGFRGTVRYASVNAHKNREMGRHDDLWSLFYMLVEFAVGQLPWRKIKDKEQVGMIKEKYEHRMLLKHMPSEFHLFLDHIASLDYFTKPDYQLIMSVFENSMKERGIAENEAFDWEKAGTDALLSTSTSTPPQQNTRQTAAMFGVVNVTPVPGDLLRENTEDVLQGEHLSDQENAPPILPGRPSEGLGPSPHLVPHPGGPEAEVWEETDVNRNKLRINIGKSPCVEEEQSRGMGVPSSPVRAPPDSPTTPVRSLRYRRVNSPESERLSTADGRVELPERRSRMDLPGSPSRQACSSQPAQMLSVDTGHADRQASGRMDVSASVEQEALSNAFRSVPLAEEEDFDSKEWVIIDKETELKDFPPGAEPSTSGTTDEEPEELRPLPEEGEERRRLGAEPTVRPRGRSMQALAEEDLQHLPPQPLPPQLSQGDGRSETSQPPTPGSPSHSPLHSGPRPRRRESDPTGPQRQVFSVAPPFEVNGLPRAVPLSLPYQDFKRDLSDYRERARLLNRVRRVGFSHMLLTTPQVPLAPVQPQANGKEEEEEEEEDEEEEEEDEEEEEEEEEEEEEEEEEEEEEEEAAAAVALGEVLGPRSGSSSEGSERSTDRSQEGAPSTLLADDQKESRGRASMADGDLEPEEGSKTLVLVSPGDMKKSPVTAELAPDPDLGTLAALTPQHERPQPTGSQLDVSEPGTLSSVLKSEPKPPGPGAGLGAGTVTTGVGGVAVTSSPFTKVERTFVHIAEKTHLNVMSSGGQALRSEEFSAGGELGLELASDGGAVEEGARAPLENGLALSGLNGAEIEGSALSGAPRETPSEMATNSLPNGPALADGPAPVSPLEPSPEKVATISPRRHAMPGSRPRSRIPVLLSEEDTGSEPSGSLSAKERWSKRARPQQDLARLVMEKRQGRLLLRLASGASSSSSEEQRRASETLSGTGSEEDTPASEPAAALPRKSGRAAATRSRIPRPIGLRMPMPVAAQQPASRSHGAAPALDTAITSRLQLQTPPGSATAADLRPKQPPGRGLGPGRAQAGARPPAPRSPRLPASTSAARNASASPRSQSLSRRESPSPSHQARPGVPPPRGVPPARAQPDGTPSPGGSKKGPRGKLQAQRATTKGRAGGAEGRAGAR

Turning to `O=C1Nc2ccc(I)cc2/C1=C/c1cc(Br)c(O)c(Br)c1` [GW5074], the remaining activity at 1 µM on GSK3b was 42%; on CAMKKb, 19%; on TTK, 88%; on PKD1 it was 66%; on PAK5 it was 77%; on FGF-R1 it was 89%. For the same compound, the remaining activity at 1 µM at TTBK1 amounted to 62%; at GCK, 60%; at STK33 it was 71%.
Regarding `Nc1ncc(C(=O)NC2CN(C(=O)C3CC3)C2)c2ccc(-c3cccc(F)c3)nc12` [GNE-495], the residual activity at GSK3b (1 μM) is reported as 69%; on CAMKKb (1 μM), 105%; on TTK (1 μM), 87%; on PKD1 (1 μM), 68%; on PAK5 (1 μM), 55%; at FGF-R1 (1 μM), 119%. In addition, the residual activity on TTBK1 (1 μM) amounted to 97%; on GCK (1 μM), 18%; at STK33 (1 μM), 94%.
`Oc1ncnc2c1c(-c1ccccc1)cn2-c1ccccc1` [F1386-0303, 5,7-diphenyl-7H-pyrrolo[2,3-d]pyrimidin-4-ol]: the remaining activity at 1 µM on GSK3b came out at 127%; at CAMKKb, 98%; at TTK, 97%; at PKD1, 103%; on PAK5, 105%; on FGF-R1 it was 99%. For the same compound, the remaining activity at 1 µM at TTBK1 stood at 102%; at GCK it was 39%; at STK33 it was 99%.
On to `COCCOc1ccc(-c2cn(-c3ccccc3)c3nc[nH]c(=O)c23)cc1` [DMX-5804, 5-[4-(2-methoxy-ethoxy)-phenyl]-7-phenyl-3,7-dihydro-pyrrolo[2,3-d]pyrimidin-4-one], for which the remaining activity at 1 µM was 102% on GSK3b; 77% on CAMKKb; 105% at TTK; 102% at PKD1; 105% at PAK5; 69% at FGF-R1. Besides, the remaining activity at 1 µM at TTBK1 is 113%; at GCK, 36%; on STK33, 97%.
On to `O=C1Cc2c([nH]c3ccc(Br)cc23)-c2ccccc2N1` [Kenpaullone], for which the remaining activity at 1 µM was 6% at GSK3b; 72% at CAMKKb; 97% on TTK; 100% at PKD1; 12% at PAK5; 108% at FGF-R1. For the same compound, the remaining activity at 1 µM at TTBK1 came out at 88%; on GCK, 95%; on STK33, 92%.

The values above are taken from article PMC6458995, “MAP4K4 Inhibition Promotes Survival of Human Stem Cell-Derived Cardiomyocytes and Reduces Infarct Size In Vivo” (Cell Stem Cell, 2019).
